Experimental data taken from patent US4826837A, “Cinnoline-carboxamides and process for their preparation” (Farmitalia Carlo Erba s.r.l., priority 1987, dated 1989).

How the values were obtained:
[1] = tested on: TU5 tumoral cells; assay: Macrophage cytotoxic activity towards TU5 tumoral cells (peritoneal cells of mice treated i.p., collected seven days later and incubated with tumor target cells); type: cell-based, mouse; conditions: peritoneal cells collected 7 days later, 48 h incubation with TU5 tumoral cells, colorimetric at 570 nm
Method: The experimental procedure to evaluate this activity is as follows: groups of 4 mice are treated i.p. with the tested compounds and then, seven days later, peritoneal cells are collected and plated for 2 hours at 37° C. After this period the walls are washed to eliminate the non adherent cells, tumor target cells are then added and the incubation is prolonged for 48 hours. At the end of this period the target cells viability is evaluated by a colorimetric method and quantified at 570 nm.
The following table summarizes the immunostimulating activity data of some compounds of the invention, obtained according to the hereabove experimental procedure, towards TU5 tumoral cells (Eur. J. Immunol. 1982, 12, 320)
Cytotoxic activity is calculated as % inhibition of TU5 tumoral cells growth using the following formula [formula] where
O.D.A.=optical density from cocultured TU5 and vehicol treated macrophages
O.D.B.=optical density from vehicol treated macrophages alone
O.D.C=optical density from cocultured TU5 and FCE compound treated macrophages
O.D.D=optical density from FCE compound treated macrophages alone.

[2] = Approximate acute toxicity (LD50) in the mouse, per os; conditions: in vivo, po, single administration of increasing doses, measured on seventh day after the day of treatment
Method: For example, the approximate acute toxicity (LD50) in the mouse of the compound 4-hydroxy-N-(2-pyridyl)-cinnoline-3-carboxamide determined per os with single administration of increasing doses and measured on the seventh day after the day of treatment, is higher than 800 mg/kg. Analogous toxicity data have been found for the other compounds of the invention.

SMILES	Macrophage cytotoxic activity (% inhibition) ([1]; 50 mg/kg i.p. to mice) [%]	Macrophage cytotoxic activity (% inhibition) ([1]; 10 mg/kg i.p. to mice) [%]	LD50 at 168 h [2] [mg/kg]
CN(C(=O)c1nnc2ccccc2c1O)c1ccccn1 [FCE 25051, 4-hydroxy-N-methyl-N-(2-pyridyl)-cinnoline-3-carboxamide]	80	–	–
O=C(Nc1ccccn1)c1nnc2ccccc2c1O [FCE 24089, 4-hydroxy-N-(2-pyridyl)-cinnoline-3-carboxamide]	–	90	> 800
O=C(Nc1ccccc1)c1nnc2ccccc2c1O [FCE 25008, 4-hydroxy-N-phenyl-cinnoline-3-carboxamide]	71	–	–
